Measured values reported in PMC5104457, “ATP-Competitive MLKL Binders Have No Functional Impact on Necroptosis” (PLoS ONE, 2016).

How the values were obtained:
[1] = target: T1, RIPK1 kinase domain (Homo sapiens, UniProt Q13546); experiment: ATP-competitive probe displacement assay, RIPK1; type: binding; conditions: average of duplicates
T1 construct: purchased DiscoverX
T1 sequence (Q13546 17-289 limits assumed): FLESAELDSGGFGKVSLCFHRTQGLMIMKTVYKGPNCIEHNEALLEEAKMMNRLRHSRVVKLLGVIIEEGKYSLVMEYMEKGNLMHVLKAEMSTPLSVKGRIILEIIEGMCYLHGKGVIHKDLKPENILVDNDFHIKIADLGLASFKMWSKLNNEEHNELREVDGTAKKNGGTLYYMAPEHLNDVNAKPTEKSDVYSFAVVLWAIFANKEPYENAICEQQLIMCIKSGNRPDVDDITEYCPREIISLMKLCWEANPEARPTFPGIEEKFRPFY
Description: (§1) Compound binding constants (KDs) were determined at DiscoverX using their KINOMEscan assay platform. This competition binding assay was previously described in Karaman et al. (2008)[18]. Briefly, full length MLKL was expressed in HEK-293 cells as a fusion with an NFκB DNA binding domain and subsequently tagged with a qPCR detection amplicon via interaction with NFκB. […] Twenty microliters of binding reactions were carried out in 384-well polypropylene plates for 1 hour at room temperature. Beads were subsequently washed and resuspended in elution buffer for 30 minutes at room temperature with shaking. The concentration of MLKL in the eluates was measured by qPCR and compound binding constants were calculated using a standard dose-response curve.
(§2) A similar approach was used to measure binding affinities for RIPK1 and RIPK3 kinase domains.

[2] = target: T2, RIPK3 kinase domain (Homo sapiens, UniProt Q9Y572); experiment: ATP-competitive probe displacement assay, RIPK3; type: binding; conditions: average of duplicates
T2 construct: purchased DiscoverX
T2 sequence (Q9Y572 21-287 limits assumed): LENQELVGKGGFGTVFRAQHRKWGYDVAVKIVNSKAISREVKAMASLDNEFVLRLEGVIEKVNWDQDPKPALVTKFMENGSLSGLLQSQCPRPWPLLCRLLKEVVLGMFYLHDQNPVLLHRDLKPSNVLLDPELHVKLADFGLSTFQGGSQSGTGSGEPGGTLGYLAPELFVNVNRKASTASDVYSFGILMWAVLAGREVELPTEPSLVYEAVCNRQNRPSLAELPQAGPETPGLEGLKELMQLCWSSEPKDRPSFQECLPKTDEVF
Description: as §1, §2

[3] = target: T3, pseudokinase His-MLKL-1 (Homo sapiens, UniProt Q8NB16); experiment: Second harmonic generation (SHG) conformational assay, MLKL pseudokinase domain; conditions: 10 μM compound; MLKL construct not given
T3 construct: sub-cloning residues 191 to 471 of the pseudokinase domain of human MLKL cDNA; made in house; host or cells: Escherichia coli BL21 (DE3)
T3 sequence (Q8NB16 191-471): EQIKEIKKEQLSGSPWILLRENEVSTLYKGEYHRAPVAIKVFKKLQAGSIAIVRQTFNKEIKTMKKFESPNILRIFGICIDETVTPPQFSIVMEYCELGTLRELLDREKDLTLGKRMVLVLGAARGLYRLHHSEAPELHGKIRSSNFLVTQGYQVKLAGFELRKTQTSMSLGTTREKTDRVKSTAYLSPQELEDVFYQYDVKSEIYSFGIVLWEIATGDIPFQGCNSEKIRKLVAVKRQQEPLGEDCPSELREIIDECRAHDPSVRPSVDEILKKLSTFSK
From the text: MLKL-1 was constructed by sub-cloning residues 191 to 471 of the pseudokinase domain of human MLKL cDNA into a pET15b vector with a thrombin cleavable N-terminal six histidine fusion tag (His-MLKL-1). MLKL-2 had the same protein boundaries and fusion tag system as MLKL-1 but the dual mutations E366A and K367A were introduced using site directed mutagenesis and was expressed in the same vector (His-MLKL-2). These residues were identified as having high surface entropy and were mutated to alanine to improve crystal packing.
The labeling reaction was performed according to manufacturer’s instructions. […]
Experiments were performed on a Biodesy Delta System. […] The fundamental is directed to an arrangement of prisms integrated with the custom, glass-bottomed Biodesy Delta Read Plates, where it undergoes total internal reflection (TIR) to generate the evanescent field at the glass-lipid bilayer interface. […] The fundamental light is filtered out leaving only the SH light which is detected by a photomultiplier tube and processed with custom electronics. […] Ligand injection into the read plate is accomplished with an on-board 8-channel MEMS-based electronic pipetting system, enabling high speed and accuracy. […]
In addition, all experiments included a control buffer injection that was used to determine the significant threshold for SHG intensity change and was calculated in a similar manner. […]

[4] = target: T4, full length MLKL (Homo sapiens, UniProt Q8NB16); experiment: KINOMEscan ATP-competitive probe displacement (competition binding) assay, MLKL; conditions: average of duplicates
T4 construct: purchased DiscoverX (KINOMEscan service); host or cells: HEK-293
T4 sequence (Q8NB16 1-471): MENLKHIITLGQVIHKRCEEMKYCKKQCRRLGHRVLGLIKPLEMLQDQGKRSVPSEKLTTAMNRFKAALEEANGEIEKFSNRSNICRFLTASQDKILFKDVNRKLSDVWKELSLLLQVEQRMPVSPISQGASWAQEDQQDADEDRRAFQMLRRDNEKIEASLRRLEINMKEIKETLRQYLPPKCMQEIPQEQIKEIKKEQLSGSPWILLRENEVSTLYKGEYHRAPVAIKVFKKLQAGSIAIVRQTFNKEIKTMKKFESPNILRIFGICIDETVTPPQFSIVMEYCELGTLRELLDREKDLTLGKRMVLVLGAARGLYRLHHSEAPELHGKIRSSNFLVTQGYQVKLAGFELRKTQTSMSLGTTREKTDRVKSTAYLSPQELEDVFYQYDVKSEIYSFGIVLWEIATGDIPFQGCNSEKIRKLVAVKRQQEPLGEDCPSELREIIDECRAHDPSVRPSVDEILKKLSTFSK
Description: as §1, with “This competition binding assay was previously described in Karaman et al. (2008)[18].” left out
as §2

Kd [1]: > 30 µM | Kd [2]: > 30 µM | change in SHG intensity (in words) [3]: no change from baseline | Kd [4]: 7.6 µM
SMILES: Nc1nccnc1C(=O)O[C@H](C(=O)Nc1ccc(F)cc1)c1ccccc1 [cpd 5]
